Data on one substance can be found in PMC10152663, “SEC14-GOLD protein PATELLIN2 binds IRON-REGULATED TRANSPORTER1 linking root iron uptake to vitamin E” (Plant Physiology, 2022).

For this assay, the target named is T1, PATELLIN2 (PATL2) (Arabidopsis thaliana, UniProt Q56ZI2).
T1 construct: Strep-tagged PATL2 (full length), recombinant from E. coli
T1 sequence (Q56ZI2 2-683): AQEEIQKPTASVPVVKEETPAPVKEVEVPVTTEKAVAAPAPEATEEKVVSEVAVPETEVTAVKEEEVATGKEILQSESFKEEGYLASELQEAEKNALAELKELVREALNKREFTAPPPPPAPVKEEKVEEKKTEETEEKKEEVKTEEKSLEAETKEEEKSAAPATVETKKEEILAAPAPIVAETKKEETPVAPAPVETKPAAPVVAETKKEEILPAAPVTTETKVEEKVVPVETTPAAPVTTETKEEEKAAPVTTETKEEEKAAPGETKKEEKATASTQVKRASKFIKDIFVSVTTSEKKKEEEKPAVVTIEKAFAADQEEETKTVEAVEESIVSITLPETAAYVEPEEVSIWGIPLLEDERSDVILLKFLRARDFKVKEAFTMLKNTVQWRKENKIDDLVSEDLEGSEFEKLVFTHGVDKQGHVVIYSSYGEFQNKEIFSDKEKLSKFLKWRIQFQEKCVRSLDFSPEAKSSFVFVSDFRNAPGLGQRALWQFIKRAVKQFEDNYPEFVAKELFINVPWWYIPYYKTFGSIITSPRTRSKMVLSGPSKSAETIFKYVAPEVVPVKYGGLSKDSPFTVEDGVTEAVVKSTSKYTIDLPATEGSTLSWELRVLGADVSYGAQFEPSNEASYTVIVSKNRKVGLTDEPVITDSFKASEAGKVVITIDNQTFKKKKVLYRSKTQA
The experiment in a line: spectrofluorimetric titration of NBD fluorescence with […] purified protein. Format: binding.

Turning to NBD-α-tocopherol [NBD-Toc], binding was put at a Kd of 86 nM. That is a double-digit nanomolar value.

As usually defined, the Kd is the free concentration of one partner at which half of the binding sites on the other are occupied at equilibrium, for simple one-to-one binding.
